“And” between values parts separate entries of the source, which are not always exact repeats. Identical values can stand only once. Where no end group is shown, it is not given here.
Assays:
Balb C splenocytes = assay: Mitogen assay (^3H-thymidine uptake), murine splenocytes; format: cell-based; conditions: for CPM of tritiated thymidine incorporated: Balb C splenocytes
Description: (§1) Murine spleen cells or human peripheral blood lymphocytes (PBLS) were obtained aseptically as described herein for use in the mitogen assay. When murine splenocytes were used, they were first treated with red cell lysing buffer (0.17 M Tris, 0.144 NH4C1, pH 7.2), washed in RPMI-10 (standard RPMI growth medium, Sigma Chemical Co., St. Louis, Mo., supplemented with 10% fetal bovine serum) and viable cells counted using Trypan Blue exclusion. Human PBLs were isolated from blood using HISTOPAQUE™-1077, a solution of FICOLL™ and sodium diatrizoate (Sigma Chemical Co., St. Louis, Mo.), and subsequent washings with RPMI-5 (RPMI supplemented with 5% fetal bovine serum) to remove platelets. Isolated lymphocytes were resuspended in RPMI-10 and a viable cell yield determined by Trypan Blue exclusion.
(§2) Drugs and known mitogenic controls were added in triplicate to a 96-well flat bottom microplate aseptically. The culture medium was RPMI-10. Splenocytes or human-lymphocytes were added at a concentration of 3-4×10^5 cells/well, to a final volume of 200 μl/well. The assay plate was incubated at 37° C. in a 5% CO2 humidified incubator. At 48-50 hours, ^3H-thymidine was added (1 μCi/well), and the plate was harvested approximately 16-18 hours later.
(§3) Mitogen assay microplates were harvested using an Inotech plate harvester (Inotech Biosystems International, Inc., Rockville, Md.). Counts per minute (cpm) per well were measured using the Berthold-Inotech Trace 96-plate reader (Inotech AT, Wohlen, Switzerland) and/or a scintillation counter (Packard Tri-carb 2100TR, Packard Instrument Co., Meriden, Conn.). Mitogenic activity was directly determined by comparing cpm levels to controls.
(§4) To test whether PT stimulates mitogen activity, splenocytes were incubated for two days with IL-2 (50 units/ml) or KLH (20 μg/ml) in conjunction with PT in the concentrations shown. Figures represent the radioactivity counts of tritiated thymidine taken up during a subsequent 20-hour incubation period of cells incubated with tritiated thymidine in RPMI.

non-adherent human PBLs = assay: Mitogen assay (^3H-thymidine uptake), human PBLs; format: cell-based; conditions: PT 0.01 μg/ml
Description: as §1, §2, §3, §4

IL-1 = assay: ELISA of IL-1 production by splenocytes; format: cell-based, Balb C murine; conditions: 48 hours, PT 0.05 μg/ml
Experimental: Identical plates are set up for an immunoassay and a mitogen assay. Mouse splenocytes and immuno-stimulating drugs are plated in duplicate wells (immunoassay) and triplicate wells (mitogen assay) in 96-well microplates as described above. The incubation at 37° C. in a humidified 5% CO2 incubator may vary from three to five days. At the end of the activation/proliferation period, the two identical plates are harvested as an immunoassay for cytokines or harvested as a mitogen assay (to which ^3H-thymidine has been added approximately 16-18 hours earlier).
Immunoassay kits used to detect IL-1β, IL-2, and IL-12 were the murine Quantikine M™ kits produced by R&D Systems (Minneapolis, Minn.). The general procedure is the same for all interleukin cytokines, and is described in the instructions provided by the manufacturer. All reagents are used at room temperature, and are prepared according to kit instructions.
The immunoassay plate is centrifuged at 200×g to pellet all cells. A 50 μl aliquot of Assay Diluent is first added to the center of each special enzyme-coated well supplied with the kit. Next, 50 μl of standard, control or test sample of supernatant from the immunoassay incubation plate is added to each well. This is incubated at room temperatures for two hours.
Liquid is aspirated from the wells, and the wells are washed five times with surfactant diluted 1:25 with distilled water. A 100 μL aliquot of Conjugate is added to each well and incubated two hours at room temperature. The wells are again aspirated and each well washed five times.
One hundred microliters of Substrate Solution are added to each well and incubated 30 minutes at room temperature. Stop Solution (100 μl) is then added to each well. The color change is light blue to yellow (activity). The plate is read for absorbence at 450 nm and at 540 nm for background readings.
To calculate the results, the duplicate readings for each pair of standard, control, and test samples are averaged and the average background optical density readings are subtracted. A standard curve is constructed for the cytokine by plotting the mean absorbence for each standard on the y-axis against the concentration on the x-axis and drawing a best-fit curve. Picograms of cytokine are determined from the standard curve. Mitogenic activity determined from the cpm of ^3H-thymidine is compared to the concentrations of cytokine in the experimental samples in the corresponding immunoassay.
One measure of macrophage activation is the production of the cytokine interleukin-1 (IL-1) and also interleukin-12 (IL-12). Incubation of 3×10^5 Balb C murine spleen cells with 0.05 μg/ml PT was performed for 48 hours. The supernatant fluid was assayed with commercial ELISA kits for IL-1 and IL-12. […] Some experiments gave less […] and some more. This is likely a reflection of the state of the immune system in the experimental mice. The addition of KLH, an effective antigen, increased both IL-1 and IL-12 production, and the addition of PT along with the KLH further increased the production of these cytokines.

IL-2 = assay: ELISA of IL-2 production by splenocytes; format: cell-based; conditions: Balb C murine spleen cells, 0.05 μg/ml PT, 48 hours
Experimental: Identical plates are set up for an immunoassay and a mitogen assay. Mouse splenocytes and immuno-stimulating drugs are plated in duplicate wells (immunoassay) and triplicate wells (mitogen assay) in 96-well microplates as described above. […] At the end of the activation/proliferation period, the two identical plates are harvested as an immunoassay for cytokines or harvested as a mitogen assay (to which ^3H-thymidine has been added approximately 16-18 hours earlier).
Immunoassay kits used to detect IL-1β, IL-2, and IL-12 were the murine Quantikine M™ kits produced by R&D Systems (Minneapolis, Minn.). The general procedure is the same for all interleukin cytokines, and is described in the instructions provided by the manufacturer. […]
One hundred microliters of Substrate Solution are added to each well and incubated 30 minutes at room temperature. […] The plate is read for absorbence at 450 nm and at 540 nm for background readings.
To calculate the results, the duplicate readings for each pair of standard, control, and test samples are averaged and the average background optical density readings are subtracted. […] Picograms of cytokine are determined from the standard curve. Mitogenic activity determined from the cpm of ^3H-thymidine is compared to the concentrations of cytokine in the experimental samples in the corresponding immunoassay. […]

[1] = Toxic effect of PT on mice in vivo (LD50); set-up: species or system mouse
[2] = Stability of PT (temperature, proteases); format: physicochemical

With “Pyrularia thionin (KSCCRNTWARNCYNVCRLPGTISREICAKKCDCKIISGTTCPSDYPK; ends and bridges not checked; also: labeled with 125I) [PT]” the “CPM of tritiated thymidine incorporated” value (Balb C splenocytes; 0.003 μg/ml, RPMI + IL-2 50 units/ml) was 2,656 ± 110 CPM, the “CPM of tritiated thymidine incorporated” value (Balb C splenocytes; 0.003 μg/ml, RPMI + KLH 20 μg/ml) was 3,957 ± 134 CPM and the “CPM of tritiated thymidine incorporated” value (Balb C splenocytes; 0.003 μg/ml, RPMI) was 230 ± 6 CPM. The “Cpm, standard mitogen assay” value (Balb C splenocytes; 0.01 μg/ml PT, GM-CSF (5 ng/ml)) was 1,767 Cpm, the “Cpm, standard mitogen assay” value (Balb C splenocytes; 0.01 μg/ml PT, GM-CSF (20 ng/ml)) was 1,254 Cpm and the “Cpm, standard mitogen assay” value (Balb C splenocytes; 0.01 μg/ml PT, no GM-CSF, BALB C spleen cells) was 287 Cpm. The “CPM of tritiated thymidine incorporated” value (Balb C splenocytes; 0.01 μg/ml, KLH 20 μg/ml) was 3,737 ± 134 CPM, the “CPM of tritiated thymidine incorporated” value (Balb C splenocytes; 0.03 μg/ml, RPMI + IL-2 50 units/ml) was 3,017 ± 107 CPM and the “CPM of tritiated thymidine incorporated” value (Balb C splenocytes; 0.03 μg/ml, RPMI + KLH 20 μg/ml) was 4,162 ± 200 CPM. For the same substance, the “CPM of tritiated thymidine incorporated” value (Balb C splenocytes; 0.03 μg/ml, RPMI) was 269 ± 57 CPM, the “Cpm, standard mitogen assay” value (Balb C splenocytes; 0.1 μg/ml PT, GM-CSF (20 ng/ml)) was 1,549 Cpm and the “CPM of tritiated thymidine incorporated” value (Balb C splenocytes; 0.1 μg/ml, RPMI + IL-2 50 units/ml) was 2,910 ± 351 CPM. For the same substance, the “CPM of tritiated thymidine incorporated” value (Balb C splenocytes; 0.1 μg/ml, RPMI + KLH 20 μg/ml) was 4,254 ± 140 CPM and 4,284 ± 140 CPM, the “CPM of tritiated thymidine incorporated” value (Balb C splenocytes; 0.1 μg/ml, RPMI) was 268 ± 74 CPM and the “CPM of tritiated thymidine incorporated” value (Balb C splenocytes; 0.3 μg/ml, RPMI + IL-2 50 units/ml) was 2,395 ± 103 CPM. For the same substance, the “CPM of tritiated thymidine incorporated” value (Balb C splenocytes; 0.3 μg/ml, RPMI + KLH 20 μg/ml) was 3,985 ± 101 CPM and 3,980 ± 101 CPM, the “CPM of tritiated thymidine incorporated” value (Balb C splenocytes; 0.3 μg/ml, RPMI) was 142 ± 10 CPM and 147 ± 10 CPM and the “CPM of tritiated thymidine incorporated” value (Balb C splenocytes; 1.0 μg/ml, RPMI + IL-2 50 units/ml) was 951 ± 122 CPM. For the same substance, the “CPM of tritiated thymidine incorporated” value (Balb C splenocytes; 1.0 μg/ml, RPMI + KLH 20 μg/ml) was 1,742 ± 154 CPM and 1,747 ± 154 CPM, the “CPM of tritiated thymidine incorporated” value (Balb C splenocytes; 1.0 μg/ml, RPMI) was 107 ± 25 CPM and the “CPM of tritiated thymidine incorporated” value (non-adherent human PBLs; RPMI) was 724 ± 212 CPM. The “CPM of tritiated thymidine incorporated” value (non-adherent human PBLs; RPMI + IL-2 50 units/ml) was 2,584 ± 527 CPM, the IL-1 (IL-1; Experiment 1, KLH 10 μg/ml, control 3.9) was 6.0 ± 0.2 pg/mL and the IL-1 (IL-1; Experiment 3, control 2) was 2.4 ± 0 pg/mL. For the same substance, the IL-1 (IL-1; Experiment 4, KLH (20 mg/ml), control 9) was 14 ± 0.9 pg/mL, the “stimulation of production of IL-2” value (IL-2) was “not conclusive” and the LD50 ([1]; for a 20-gram mouse) was 30 µg. For the same substance, the “LD50 relative to the amount with maximal protective (immunostimulatory) effect” value ([1]; versus 3 μg PT) was “ten times greater”, the “interaction with cell membranes after exposure to temperature” value ([2]; 70° C.) was “not influenced” and the resistance to proteases ([2]; common proteases found in blood) was “resistant to the common proteases found in blood”.

Source: patent US7572436B1, “Thionin as an antineoplastic and immunostimulant” (priority 2000, dated 2009)
